# According to US20200236969A1, “METHODS AND COMPOSITIONS FOR IMPROVING GROWTH AND PERFORMANCE” (priority 2017, published 2020):
# Legend:
# [1] = tested on: turkey poults; assay: Pen trial of probiotic blends alone and with prebiotics: body weight, uniformity, feed conversion; assay type: in vivo
# Procedure: Pen trial experiments were performed using the 4-strain probiotic blend and 10-strain (3 week) probiotic blend described in Example 2. The effect of each combination was assessed alone and in combination with one of two prebiotics, Lactose 1% in feed or 0.5 lbs SAFMANNAN per ton of feed (Phileo Lesaffre Animal Care, Marcq-En-Baroeul Cedex, France). The prebiotic was administered continuously in feed.
# This Experiment started in December 2017 and lasted 15 weeks. Poults were housed in pens through 6 weeks of age then moved to a common area. They remained on experimental feed through 6 weeks; then were all given control feed. Probiotic inoculations were performed at day of hatch and 3 weeks of age.
# [2] = tested on: day-of-hatch turkeys; assay: Second caged trial: 4-strain combination vs FM-B11 and BMD, body weight; assay type: in vivo, turkey
# Excerpt: FIG. 5A and FIG. 5B show average body weights in grams (y-axis) for day-of-hatch turkeys treated with a 4-strain probiotic blend inoculation group, day-of-hatch turkeys treated with an existing commercial probiotic derived from chickens (FM-B11), and day-of-hatch turkeys treated with a low-dose antibiotic (bacitracin methylene disalicylate or BMD), as described in Example 2, compared to day-of-hatch turkeys treated with a saline negative control. FIG. 5A. Turkeys were weighed on day 0 (that is, day-of-hatch), day 3, day 6, and day 13. Error bars depict standard error of means. […] For each treatment group, eight replicate cages were used with 10 birds per cage (n=80 per treatment group).
# A second trial was performed to repeat the 4-strain combination inoculation and compare it again with a negative saline control, an existing commercial probiotic derived from chickens (FM-B11), and a low-dose antibiotic (bacitracin methylene disalicylate or BMD) administered continuously at 50 g/ton in the feed. […] Results are shown in FIG. 5 and Table 5 and indicate that there is repeatability in the ability of this 4-strain combination to enhance turkey performance related to weight gain.
Molecule,Feed conversion ratio 0-2 weeks ([1]; 0-2 weeks of age),Feed conversion ratio 0-6 weeks ([1]; 0-6 weeks of age),"Total body weight average Day 0 ([1]; Day 0 (baseline), pen trial) [grams]","Total body weight average Week 1 ([1]; Week 1, pen trial, probiotic at day of hatch and 3 weeks, prebiotic continuously in feed) [grams]","Total body weight average Week 2 ([1]; Week 2, pen trial) [grams]","Total body weight average Week 3 ([1]; Week 3, pen trial) [grams]",Coefficient of variation as a measure of bird uniformity Week 3 ([1]; Week 3 of age),"Total body weight average Week 6 ([1]; Week 6, pen trial) [grams]",Coefficient of variation as a measure of bird uniformity Week 6 ([1]; Week 6 of age),Average body weight Day 3 ([2]; day 3) [g],Average body weight Day 6 ([2]; day 6) [g],Average body weight Day 13 ([2]; day 13) [g],Average body weight Day 0 ([2]; day-of-hatch (baseline)) [g]
"OC[C@H]1O[C@@H](O[C@H]2[C@H](O)[C@@H](O)C(O)O[C@@H]2CO)[C@H](O)[C@@H](O)[C@H]1O (stereo partly shown) [Lactose 1%, Lactose]",1.40,1.71,65.0,169.9,350.7,704.0,10.304,2471.0,9.3181,–,–,–,–
bacitracin methylene disalicylate [BMD Antibiotic],–,–,–,–,–,–,–,–,–,76.8,125.5,314.3,60.1
